Assay results reported in patent US9752049B2, “Optically transparent, superhydrophobic, biocompatible thin film coatings and methods for producing same” (UT-BATTELLE, LLC, priority 2014, dated 2017).
In brackets after ≈: the same amount, converted by molar mass.

Assay: physchem
Details: organic solvent or mixture, Solubility Limit
Excerpt: The first step was to gather solubility data on the fatty acids in readily available solvents. […] The available solvents included ethanol, isopropanol, hexane, and acetone.
The next step was to use spin-coating to apply the optimum mixture of each fatty acid/alcohol solution to microscope slides. This process began with cleaning the slide, then affixing it to the spin-coater by turning on the internal vacuum. Once the slide was in place, the chosen solution was applied by a syringe using a 0.02 micron filter. This filter was to ensure that only the pure solution and no contaminants or occasional precipitates made it onto the slide. The coated slide was then spun at 1000 rpm for thirty seconds and placed on a hot plate at 152 degrees Fahrenheit to vaporize any remaining solvent. The slide was allowed to cool for two minutes. Once cool, the slide was subjected to a simple yet effective test of hydrophobicity. This test consisted of merely placing a water droplet on the slide using a Pasteur pipet and eyeballing it to see if it even merited further characterization. This process was repeated for many slides, each time varying the type of fatty acid and the solvent as well as the concentration of the fatty acid in the solvent. […] Below is additional solubility data for Behenic Acid: […]

Which solubility does the source give for `CCCCCCCCCCCCCC(=O)O` [Myristic Acid] here?
The solubility was 300 mM (≈ 68.5 mg/mL).
